# From article PMC11292843 (ACS Omega, 2024)
# Assays:
# hPTP1B1–400 [1] = molecular target: T1, hPTP1B1–400 (Homo sapiens, UniProt P18031); experiment: PTP1B inhibition assay (pNPP, spectrocolorimetric), long form
# T1 sequence (P18031 1-400): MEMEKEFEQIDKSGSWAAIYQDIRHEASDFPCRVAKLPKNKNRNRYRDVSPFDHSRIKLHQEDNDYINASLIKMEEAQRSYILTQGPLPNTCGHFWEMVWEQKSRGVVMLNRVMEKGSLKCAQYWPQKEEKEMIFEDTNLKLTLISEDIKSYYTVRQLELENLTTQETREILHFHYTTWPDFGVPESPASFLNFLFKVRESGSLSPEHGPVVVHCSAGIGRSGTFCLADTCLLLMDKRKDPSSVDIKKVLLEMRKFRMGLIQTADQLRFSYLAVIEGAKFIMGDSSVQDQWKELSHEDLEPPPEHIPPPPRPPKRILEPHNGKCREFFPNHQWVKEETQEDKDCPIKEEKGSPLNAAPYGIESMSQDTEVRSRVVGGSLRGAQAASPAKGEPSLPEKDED
# hPTP1B1–400 [2] = molecular target: T1, hPTP1B1–400; experiment: Enzyme kinetics (Lineweaver–Burk, varying pNPP); settings: for inhibition mechanism: hPTP1B1–400, best fit of inhibition models; for Km / Vmax: hPTP1B1–400, pNPP 0.1–0.5 mM
# hPTP1B1–285 = molecular target: T2, hPTP1B1–285 (Homo sapiens, UniProt P18031); experiment: PTP1B inhibition assay (pNPP, spectrocolorimetric), short form
# T2 sequence (P18031 1-285): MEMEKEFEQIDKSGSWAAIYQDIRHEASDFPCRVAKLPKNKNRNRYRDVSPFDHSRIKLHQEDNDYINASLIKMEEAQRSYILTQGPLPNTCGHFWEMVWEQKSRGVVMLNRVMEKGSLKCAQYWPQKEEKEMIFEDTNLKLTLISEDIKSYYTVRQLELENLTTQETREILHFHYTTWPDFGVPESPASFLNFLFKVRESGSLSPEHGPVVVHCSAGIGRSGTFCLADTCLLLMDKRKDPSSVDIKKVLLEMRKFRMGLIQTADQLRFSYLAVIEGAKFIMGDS
# hTCPTP = molecular target: T3, hTCPTP (Homo sapiens, UniProt P17706); experiment: Selectivity assay against TCPTP; type: biochemical
# T3 construct: His tag (vector pET-28a(+)-TEV, with TEV site); made in house; host or cells: E. coli BL21 (DE3)
# T3 sequence (P17706 1-415): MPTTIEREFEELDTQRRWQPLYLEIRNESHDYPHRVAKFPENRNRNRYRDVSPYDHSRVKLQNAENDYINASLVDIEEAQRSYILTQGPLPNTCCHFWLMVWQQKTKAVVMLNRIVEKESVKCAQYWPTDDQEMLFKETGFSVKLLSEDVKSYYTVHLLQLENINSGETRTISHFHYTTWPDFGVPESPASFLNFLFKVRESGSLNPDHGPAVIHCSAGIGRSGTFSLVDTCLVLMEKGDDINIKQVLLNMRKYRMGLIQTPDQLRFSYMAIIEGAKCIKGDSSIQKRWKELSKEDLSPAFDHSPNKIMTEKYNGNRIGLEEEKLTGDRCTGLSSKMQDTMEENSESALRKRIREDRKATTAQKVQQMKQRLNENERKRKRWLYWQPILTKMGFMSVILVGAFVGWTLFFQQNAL
# Experimental: A spectrocolorimetric method previously described[3] was employed to test the inhibitory effect of the new compounds against PTP1B. […] Enzyme solutions containing pNPP and inhibitors were incubated at 37 °C for 15 min. […] The percentage of inhibition was plotted as a function of the inhibitor concentrations.
# Similarly to the IC50, the assays to determine the selectivity were carried out in the same experimental conditions using hPTP1B1–400 and hTCPTP.
# The expression vector pET-28a(+)-TEV was obtained from Invitrogen (Waltham, MA, USA). E. coli strain DH5α and BL21 (DE3) were purchased from Invitrogen (Waltham, MA, USA). The gene PTPN2 was subcloned into the expression vector pET-28a (+)-TEV, using the NDEI and BAMHI cloning sites. The construction pET-28A(+)-TEV–PTPN2 was transformed into E. coli strain BL21 (DE3). Transformed E. coli cells were grown in LB media containing kanamycin ([…]) at 37 °C for 6 h with continuous agitation (250 rpm). Once the cultures reached an A600 of 0.6 (about 6 h), protein expression was induced with 1 mM IPTG at 37 °C, 250 rpm for 8 h. After centrifuge (4500 rpm, 15 min, 4 °C), the grown and IPTG-induced cultures and bacterial pellet were resuspended in Tris buffer (pH 6.8) and lysed by sonication (10 cycles, intervals of 30 s) in an ice–water bath with an ultrasonic processor (Cole-Parmer, Vernon Hills, IL, USA). […] The column was equilibrated with three column volumes of 50 mM Tris, pH 6.8. His-tagged protein was eluted with Tris 50 mM and 300 mM imidazole with one column volume. […] Fractions containing hTCPTP were dialyzed in 50 mM Tris, pH 6.8. The purity of the protein was followed by SDS-polyacrylamide gel electrophoresis (SDS-PAGE) using a 12% resolving gel.
# [3] = IC50 ± SD hPTP1B1–400, hPTP1B 66 nM, pNPP 0.5 mM, 37 °C, 15 min
IC50 (hPTP1B1–400 [1]; [3]) [µM],Compound,Ki (hPTP1B1–400 [2]) [µM],inhibition mechanism (hPTP1B1–400 [2]),Km (hPTP1B1–400 [2]) [µM],Vmax (hPTP1B1–400 [2]) [mM/min],also measured
33.1 ± 2.7,"C[C@H](CCC(=O)O)C1CCC2C3CC[C@@H]4C[C@](O)(CNCc5ccccc5)CC[C@]4(C)C3CC[C@@]21C (stereo partly drawn) [compound 6a, N-Benzyl-1-((3S,5R,10S,13R)-17-((R)-4-carboxybutan-2-yl)-3-hydroxy-10,13-dimethylhexadecahydro-1H-cyclopenta[a]phenanthren-3-yl)methanaminium Chloride]",,,,,
26.9 ± 3.5,"C[C@H](CCC(=O)O)C1CCC2C3CC[C@@H]4C[C@](O)(CNCc5ccc(O)cc5)CC[C@]4(C)C3CC[C@@]21C (stereo partly drawn) [compound 6b, 1-((3S,5R,10S,13R)-17-((R)-4-carboxybutan-2-yl)-3-hydroxy-10,13-dimethylhexadecahydro-1H-cyclopenta[a]phenanthren-3-yl)-N-(4-hydroxybenzyl)methanaminium Chloride]",,,,,
16.3 ± 0.5,"Cc1cccc(CNC[C@]2(O)CC[C@]3(C)C4CC[C@@]5(C)C(CCC5[C@H](C)CCC(=O)O)C4CC[C@@H]3C2)c1 (stereo partly drawn) [compound 6e, 1-((3S,5R,10S,13R)-17-((R)-4-carboxybutan-2-yl)-3-hydroxy-10,13-dimethylhexadecahydro-1H-cyclopenta[a]phenanthren-3-yl)-N-(3-methylbenzyl)methanaminium Chloride]",,,,,IC50 (hPTP1B1–285): 53.8 ± 2.7 µM
34.3 ± 0.5,"Cc1ccc(CNC[C@]2(O)CC[C@]3(C)C4CC[C@@]5(C)C(CCC5[C@H](C)CCC(=O)O)C4CC[C@@H]3C2)cc1 (stereo partly drawn) [compound 6f, 1-((3S,5R,10S,13R)-17-((R)-4-carboxybutan-2-yl)-3-hydroxy-10,13-dimethylhexadecahydro-1H-cyclopenta[a]phenanthren-3-yl)-N-(4-methylbenzyl)methanaminium Chloride]",,,,,IC50 (hPTP1B1–285): 46 ± 1.7 µM
> 100,"C[C@H](CCC(=O)O)C1CCC2C3CC[C@@H]4C[C@](O)(CNCc5cccc(F)c5)CC[C@]4(C)C3CC[C@@]21C (stereo partly drawn) [compound 6g, 1-((3S,5R,10S,13R)-17-((R)-4-carboxybutan-2-yl)-3-hydroxy-10,13-dimethylhexadecahydro-1H-cyclopenta[a]phenanthren-3-yl)-N-(3-fluorobenzyl)methanaminium Chloride]",,,,,
> 100,"C[C@H](CCC(=O)O)C1CCC2C3CC[C@@H]4C[C@](O)(CNCc5ccc(F)cc5)CC[C@]4(C)C3CC[C@@]21C (stereo partly drawn) [compound 6h, 1-((3S,5R,10S,13R)-17-((R)-4-carboxybutan-2-yl)-3-hydroxy-10,13-dimethylhexadecahydro-1H-cyclopenta[a]phenanthren-3-yl)-N-(4-fluorobenzyl)methanaminium Chloride]",,,,,
> 100,"C[C@H](CCC(=O)O)C1CCC2C3CC[C@@H]4C[C@](O)(CNCc5cccc(Cl)c5)CC[C@]4(C)C3CC[C@@]21C (stereo partly drawn) [compound 6i, 1-((3S,5R,10S,13R)-17-((R)-4-carboxybutan-2-yl)-3-hydroxy-10,13-dimethylhexadecahydro-1H-cyclopenta[a]phenanthren-3-yl)-N-(3-chlorobenzyl)methanaminium Chloride]",,,,,
> 100,"C[C@H](CCC(=O)O)C1CCC2C3CC[C@@H]4C[C@](O)(CNCc5ccc(Cl)cc5)CC[C@]4(C)C3CC[C@@]21C (stereo partly drawn) [compound 6j, 1-((3S,5R,10S,13R)-17-((R)-4-carboxybutan-2-yl)-3-hydroxy-10,13-dimethylhexadecahydro-1H-cyclopenta[a]phenanthren-3-yl)-N-(4-chlorobenzyl)methanaminium Chloride]",,,,,

Compound,IC50 (hPTP1B1–400 [1]; [3]) [µM],Ki (hPTP1B1–400 [2]) [µM],inhibition mechanism (hPTP1B1–400 [2]),Km (hPTP1B1–400 [2]) [µM],Vmax (hPTP1B1–400 [2]) [mM/min],also measured
"COc1cccc(CNC[C@]2(O)CC[C@]3(C)C4CC[C@@]5(C)C(CCC5[C@H](C)CCC(=O)O)C4CC[C@@H]3C2)c1.Cl (stereo partly drawn) [compound 6c, 1-((3S,5R,10S,13R)-17-((R)-4-carboxybutan-2-yl)-3-hydroxy-10,13-dimethylhexadecahydro-1H-cyclopenta[a]phenanthren-3-yl)-N-(3-methoxybenzyl)methanaminium Chloride]",10.5 ± 0.2,4 ± 0.2,Uncompetitive,380 ± 20,0.64 ± 0.02,
"COc1ccc(CNC[C@]2(O)CC[C@]3(C)C4CC[C@@]5(C)C(CCC5[C@H](C)CCC(=O)O)C4CC[C@@H]3C2)cc1.Cl (stereo partly drawn) [compound 6d, 1-((3S,5R,10S,13R)-17-((R)-4-carboxybutan-2-yl)-3-hydroxy-10,13-dimethylhexadecahydro-1H-cyclopenta[a]phenanthren-3-yl)-N-(4-methoxybenzyl)methanaminium Chloride]",26.6 ± 0.9,19.7 ± 2.6,Uncompetitive,780 ± 90,1.10 ± 0.09,
"C[C@H](CCC(=O)O)C1CCC2C3CC[C@@H]4C[C@](O)(CNCc5cccc(C(=O)O)c5)CC[C@]4(C)C3CC[C@@]21C.Cl (stereo partly drawn) [compound 6k, N-(3-carboxybenzyl)-1-((3S,5R,10S,13R)-17-((R)-4-carboxybutan-2-yl)-3-hydroxy-10,13-dimethylhexadecahydro-1H-cyclopenta[a]phenanthren-3-Yl)methanaminium Chloride]",32.3 ± 1.2,11 ± 1,Uncompetitive,480 ± 60,0.80 ± 0.06,
"C[C@H](CCC(=O)O)C1CCC2C3CC[C@@H]4C[C@](O)(CNCc5ccc(C(=O)O)cc5)CC[C@]4(C)C3CC[C@@]21C.Cl (stereo partly drawn) [compound 6l, N-(4-carboxybenzyl)-1-((3S,5R,10S,13R)-17-((R)-4-carboxybutan-2-yl)-3-hydroxy-10,13-dimethylhexadecahydro-1H-cyclopenta[a]phenanthren-3-yl)methanaminium Chloride]",12.6 ± 0.7,10.7 ± 1.6,Uncompetitive,950 ± 150,1.41 ± 0.17,
"C[C@H](CCC(=O)O)C1CCC2C3CC[C@@H]4C[C@](O)(CNCc5cccc(C(F)(F)F)c5)CC[C@]4(C)C3CC[C@@]21C.Cl (stereo partly drawn) [compound 6m, 1-((3S,5R,10S,13R)-17-((R)-4-carboxybutan-2-yl)-3-hydroxy-10,13-dimethylhexadecahydro-1H-cyclopenta[a]phenanthren-3-yl)-N-(3-(trifluoromethyl)benzyl)methanaminium Chloride]",7.3 ± 0.5,2.5 ± 0.4,uncompetitive inhibition,780 ± 200,1.05 ± 0.18,"IC50 (hTCPTP; concentrations tested 1 to 400 μM, read-out: TCPTP IC50 ± SD): > 400 µM; fold selectivity for PTP1B over TCPTP (hTCPTP; hPTP1B1–400 vs hTCPTP): around 75 fold; selectivity (PTP1B over TCPTP) (hTCPTP; hPTP1B1–400 vs hTCPTP): Yes; IC50 (hPTP1B1–400 [1]; PTP1B IC50 ± SD, selectivity assay, hPTP1B1–400): 7.3 ± 0.5 µM; fold higher potency for hPTP1B1–400 over hPTP1B1–285 (hPTP1B1–400 [1]; ratio of IC50 values, long vs short form): around 5 fold; IC50 (hPTP1B1–285): 34.9 ± 0.4 µM"
